In patent publication US4250183A, “N-(Substituted amino)alkanoyl-aminoalkanoic acids and salts, their use and their compositions” (BYK Gulden Lomberg Chemische Fabrik GmbH, priority 1977, dated 1981):

Tests used:
[1] = Influence on the pancreatic secretion of the narcotized rat after intraduodenal application; type: in vivo, rat (male Sprague-Dawley); settings: in vivo; Table I; LD50 mouse i.p. / ED50 pancreatic secretion rat i.d.; read-out: TQ (LD50/ED50), pancreatic secretion
From the text: (§1) Influence on the Pancreatic and Bile Secretion of the Narcotized Rat Carrying out the Test
(§2) Male Sprague-Dawley rats (250 to 300 g body weight) are narcotized with 1.2 g/kg urethane i.m. Then the abdominal cavity is opened medially, the Ductus choledochus ligatured shortly above its entry into the duodenum and also near the liver joint, and both sections are catheterized towards the liver.
(§3) As in the case of the rat all pancreatic ducts lead into the center section of the Ductus choledochus; it is thus possible in this way to derive separately the pancreatic secreta from the distal (ligatured) section and the bile from the proximal section of the Ductus choledochus.
(§4) The separated quantities of pancreatic juice and bile juice are measured at intervals of 30 minutes during the period from before 2 hours to 3 hours after the intraduodenal […] administration of the compounds to be tested (volume of liquid administered 5 ml/kg).
(§5) The body temperature of the animals is maintained at from 36° to 38° C. by means of electric blankets and radiation; the monitoring of the temperature is carried out rectally.
(§6) The liquid volumes of the 30-minute fractions after the administration of the product are related in each case to the quantity of bile or pancreatic juice secreted prior to the application of the substance (=100%, mean of the two last measurements). The maximum percentage increase of the pancreatic or bile secretion is plotted against the dose and, from this, the ED50 is determined by interpolation.

pancreatic secretion = assay: as above; type: in vivo, rat (male Sprague-Dawley); settings: Rattus norvegicus, 0.5 h, read-out: Pancreatic Secretion ED50 (dose which brings about an increase in the pancreatic secretion by a maximum of 50%)
From the text: as §1, §2, §3, §4, §5, §6

in vivo = settings: mouse, ip
Experimental: (§7) The animals (5 animals per dose) are given food and water ad lib. Different dosages of the substances are administered intraperitoneally. The duration of observation is 14 days.

[2] = Influence on the bile secretion (choleresis) of the narcotized rat after intraduodenal application; type: in vivo, rat (male Sprague-Dawley); settings: in vivo; Table II; LD50 mouse i.p. / ED50 bile secretion rat i.d.; read-out: TQ (LD50/ED50), bile secretion
From the text: as §1, §2, §3, §4, §5, §6

bile secretion = assay: as above; type: in vivo, rat (male Sprague-Dawley); settings: Rattus norvegicus, 0.5 h, read-out: Bile Secretion ED50 (dose which brings about an increase in the bile secretion by a maximum of 50%)
From the text: as §1, §2, §3, §4, §5, §6

female NMRI mice = assay: Determination of the toxicity, lethal effect on the mouse after intraperitoneal application; settings: Table II, i.p., 14 days observation;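 note: mice received several intraperitoneal dose levels, five animals per level, and were followed for 14 days to estimate the lethal dose for half the animals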
Experimental: as §7

Compound	selectivity ratio [1]	ED50 (pancreatic secretion) [mg/kg]	LD50 at 336 h (in vivo) [mg/kg]	selectivity ratio [2]	ED50 (bile secretion) [mg/kg]	Toxicity LD50 (female NMRI mice) [mg/kg]
Cc1cccc(C)c1N(CCCC(=O)N(C)CC(=O)O)C(=O)c1ccc(Cl)cc1 [Serial No. 2, N-[N-(p-chlorobenzoyl)-4-(2,6-dimethylanilino)butyryl]sarcosine]	70	10	700			
COc1ccc(N(CC(=O)N(C)CC(=O)O)C(=O)c2ccc(Cl)cc2)cc1 [Serial No. 3, N-[N-(p-chlorobenzoyl)-2-(p-anisidino)acetyl]sarcosine]	> 67	15	> 1000			
COc1ccc(N(CC(=O)NCC(=O)O)C(=O)c2ccc(Cl)cc2)cc1 [Serial No. 4, N-[N-(p-chlorobenzoyl)-2-(p-anisidino)acetyl]glycine]	> 67	15	> 1000			
COc1ccc(N(CC(=O)NCCC(=O)O)C(=O)c2ccc(Cl)cc2)cc1 [Serial No. 5, N-[N-(p-chlorobenzoyl)-2-(p-anisidino)acetyl]-3-aminopropionic acid]	52	25	1300			
Cc1cccc(C)c1N(CC(=O)NCC(=O)O)C(=O)c1ccc(Cl)cc1 [Serial No. 6, N-[N-(p-chlorobenzoyl)-2-(2,6-dimethylanilino)acetyl]glycine]	~80	~5	400			
Cc1cccc(C)c1N(CC(=O)NCCC(=O)O)C(=O)c1ccc(Cl)cc1 [Serial No. 7, N-[N-(p-chlorobenzoyl)-2-(2,6-dimethylanilino)acetyl]-3-aminopropionic acid]	≥ 450	≤ 1	450	45	10	
COc1ccc(N(CC(=O)N(CCCC(=O)O)c2ccc(OC)cc2)C(C)=O)cc1 [Serial No. 8, N-[N-acetyl-2-(p-anisidino)acetyl]-4-(p-anisidino)butyric acid]	1200	1	1200			
COc1ccc(N(CCCC(=O)O)C(=O)CN(C(=O)c2ccc(Cl)cc2)c2ccc(OC)cc2)cc1 [Serial No. 9, N-[N-(p-chlorobenzoyl)-2-(p-anisidino)acetyl]-4-(p-anisidino)butyric acid]	140	3	420			
COc1ccc(N(CCCC(=O)O)C(=O)CCN(C(=O)c2ccc(Cl)cc2)c2ccc(OC)cc2)cc1 [Serial No. 10, N-[N-(p-chlorobenzoyl)-3-(p-anisidino)propionyl]-4-(p-anisidino)butyric acid]	~220	~1	220			
Cc1cccc(C)c1N(CCCC(=O)O)C(=O)CCCN(C(=O)c1ccc(Cl)cc1)c1c(C)cccc1C [Serial No. 11, N-[N-(p-chlorobenzoyl)-4-(2,6-dimethylanilino)butyryl]-4-(2,6-dimethylanilino)butyric acid]	130	1	130	43	3	
COc1ccc(N(CCCC(=O)N(CCCC(=O)O)c2c(C)cccc2C)C(=O)c2ccc(Cl)cc2)cc1 [Serial No. 12, N-[N-(p-chlorobenzoyl)-4-(p-anisidino)butyryl]-4-(2,6-dimethylanilino)butyric acid]	400	2	800	57	14	
COc1ccc(N(CCCC(=O)O)C(=O)CCCN(C(=O)c2ccc(Cl)cc2)c2c(C)cccc2C)cc1 [Serial No. 13, N-[N-(p-chlorobenzoyl)-4-(2,6-dimethylanilino)butyryl]-4-(p-anisidino)butyric acid]	188	0.8	150			
Cc1cccc(C)c1N(CCCC(=O)NCCCC(=O)O)C(=O)c1ccc(Cl)cc1 [Serial No. 14, N-[N-(p-chlorobenzoyl)-4-(2,6-dimethylanilino)butyryl]-4-aminobutyric acid]	1000	0.4	400			
COc1cc(C(=O)N(CCCC(=O)NCCCC(=O)O)c2c(C)cccc2C)cc(OC)c1OC [Serial No. 15, N-[N-(3,4,5-trimethoxybenzoyl)-4-(2,6-dimethylanilino)butyryl]-4-aminobutyric acid]	~800	~1	800			
COc1ccc(N(CCCC(=O)O)C(=O)C(C)N(C(C)=O)c2ccc(OC)cc2)cc1 (centres unmarked) [Serial No. 16, N-[N-acetyl-2-(p-anisidino)propionyl]-4-(p-anisidino)butyric acid]			600	60	10	
COc1ccc(N(CCCC(=O)O)C(=O)C(C)N(C(=O)c2ccco2)c2ccc(OC)cc2)cc1 (centres unmarked) [Serial No. 17, N-[N-(2-furoyl)-2-(p-anisidino)propionyl]-4-(p-anisidino)butyric acid]	150	5	750	68	11	
COc1ccc(N(CCCC(=O)O)C(=O)C(C)N(C(=O)c2ccc(Cl)cc2)c2ccc(OC)cc2)cc1 (centres unmarked) [Serial No. 18, N-[N-(p-chlorobenzoyl)-2-(p-anisidino)propionyl]-4-(p-anisidino)butyric acid]	≤ 50	5	≤ 250	≤ 36	7	≤ 250
COc1ccc(N(CCCC(=O)O)C(=O)CCN(C(C)=O)c2c(C)cccc2C)cc1 [Serial No. 20, N-[N-acetyl-3-(2,6-dimethylanilino)propionyl]-4-(p-anisidino)butyric acid]	86	7	600	86	7	
CCc1cccc(CC)c1N(CCCC(=O)O)C(=O)CCN(C(C)=O)c1c(C)cccc1C [Serial No. 21, N-[N-acetyl-3-(2,6-dimethylanilino)propionyl]-4-(2,6-diethylanilino)butyric acid]			280	~280	~1	
CCc1cccc(C)c1N(CCCC(=O)O)C(=O)CCN(C(C)=O)c1c(C)cccc1C [Serial No. 22, N-[N-acetyl-3-(2,6-dimethylanilino)propionyl]-4-(2-ethyl-6-methylanilino)butyric acid]	143	3	430	331	1.3	
COc1ccc(N(CCCC(=O)O)C(=O)[C@H](CCSC)NC(=O)c2ccc(Cl)cc2)cc1 [Serial No. 23, N-[N-(p-chlorobenzoyl)methionyl]-4-(p-anisidino)butyric acid]			700	280	2.5	
COc1ccc(C(=O)N[C@@H](Cc2ccccc2)C(=O)N(CCCC(=O)O)c2ccc(OC)cc2)cc1 [Serial No. 24, N-[N-(p-methoxybenzoyl)phenylalanyl]-4-(p-anisidino)butyric acid]	50	6	300	50	6	
COc1ccc(N(CCCC(=O)O)C(=O)CCN(C(=O)c2ccc(Cl)cc2)c2c(C)cccc2C)cc1 [Serial No. 25, N-[N-(p-chlorobenzoyl)-3-(2,6-dimethylanilino)propionyl]-4-(p-anisidino)butyric acid]			60	~60	~1	
